According to US8227616B2, “Cyanopyridine antibacterial agents and methods of use thereof” (Wisconsin Alumni Research Foundation, priority 2006, dated 2012):
Converted amounts (≈) assume the structure as drawn. Where two headings read alike, the source gives them in different places.

Assays:
S. aureus ATCC 10390 [1] = test: Kirby-Bauer disk diffusion assay on compound spots from cleaved macroarray; assay type: cell-based, Staphylococcus aureus; details: loadings 30 μg/spot, 18 h incubation
Method: While the heterocyclic libraries were being synthesized, the chalcone macroarrays were analyzed using various direct assay techniques such as the Kirby-Bauer disk diffusion assay (FIG. 2E). Bauer, A. W.; Kirby, […].; Turck, M. Technical Bulletin of the Registry of Medical Technologists 1966, 36, 49-52. For this assay, the macroarray members are punched out from the membrane, cleaved from the support with TFA vapor, neutralized with ammonia vapor, and then placed on an agar bed inoculated with S. aureus. After incubating overnight, different diameters of zones of inhibition are measured as a factor of potency as well as solubility in the medium. Ammonia vapor neutralization was key in the disk diffusion assay, otherwise residual TFA vapor created a false positive signature. However, in this method, macroarrays have to be made in triplicate one for a replicate and one for compound characterization. We first evaluated test chalcone macroarrays (3) in antibacterial assays against S. aureus. Because the macroarrays were prepared on cellulose filter paper, we had convenient access to the compounds in disk form for standard disk diffusion assays. Compound spots were punched out of the macroarrays, subjected to vapor phase cleavage with acid (TFA), and neutralized (NH3) to afford disks containing ca. 30 μg of adsorbed compound [8]. These disks were manually placed on lawns of S. aureus, and zones of inhibition were measured after an 18 h incubation period. […] However, this antibacterial assay format had drawbacks: (1) the entire sample of compound was consumed during the assay, and thus replicate arrays needed to be synthesized to confirm activity, and (2) manipulating large numbers of compound disks was relatively labor intensive. Compound spots were cleaved with TFA and neutralized with NH3 as described herein. […] Compound spots were placed onto the agar, the plate was incubated at 37° C. for 18 h, and the diameters of the zones of inhibition were measured. […] Compound spots were subjected to the TFA cleavage conditions described above. The spots were next subjected to NH3 vapor to neutralize any remaining TFA. […] Vials containing the spots (or intact macroarrays) were placed inside a small evaporating dish, and this was placed into the NH4OH solution. The Pyrex dish was covered, and NH3 vapor was allowed to slowly diffuse into the vials. After 1 h, the vials were removed from the NH3 chamber, and the spots were allowed to stand open in a fume hood for at least 15 min to vent prior to analysis in the following assays. This afforded dry, paper disks containing adsorbed compound. […] The plates were removed, and the diameters of the zones of inhibition were measured in mm using a ruler (see FIG. 1A).

S. aureus ATCC 10390 [2] = test: MIC determination with authentic compounds resynthesized in solution; assay type: cell-based, Staphylococcus aureus; details: for MIC: Staphylococcus aureus, ATCC10390
Method: For estimated MIC determination, DMSO was added to the dried compound residue obtained from a single spot to afford ca. 100 μL of a 2 mM stock solution. Aliquots (5 μL) of these solutions were added to a 96-well plate, followed by 195 μL of diluted S. aureus 10390 (10^6 CFUs/mL) to yield ca. 50 μM final concentrations. The plates were swirled for 1 h to ensure compound dissolution, incubated for 12 h at 37° C., and the absorbance at 595 nm was recorded using a plate reader. […] Actual MIC values were determined for lead compounds resynthesized in solution using an analogous procedure with solutions of known concentration (see).
Dose response growth inhibition curves were determined for each active compound (resynthesized in solution) against S. aureus 10390 (SA) and methicillin-resistant S. aureus 33591 (MRSA). […] MIC assays were performed in quadruplicate.

MIC (S. aureus ATCC 10390 [2]; Table 2, authentic sample synthesized according to standard techniques, read-out: observed MIC): 3.3 ± 0.3 µM (≈ 1.19 µg/mL)
MIC (S. aureus ATCC 10390 [2]; Table 3, authentic sample, only trans isomers of chalcones, error reflects step size in the serial dilutions, read-out: S. aureus MIC): 3.5 ± 0.5 µM (≈ 1.26 µg/mL)
SMILES: O=C(/C=C/c1cc(C(F)(F)F)cc(C(F)(F)F)c1)c1cccc(O)c1 [Compound 4Bv, 3′-hydroxy-3,5-bis(trifluoromethyl)chalcone]
Zones of inhibition (S. aureus ATCC 10390 [1]): 22 mm
MIC against S. aureus 10390 (S. aureus ATCC 10390 [2]; values quoted in killing-curve protocol, unit not given): ca. 3.5
